Where a SMILES comes first, the peptide text is derived from it. [ ]: non-standard residue; d: D form. dTrp(2-Me) = Cc1[nH]c2ccccc2c1C[C@@H](N)C(=O)O
Test: Body temperature, mortality and body weight in the hypoxia-ischemia study
Type: in vivo, rats
Conditions: between the two groups (hexarelin vs. vehicle); data not shown
From the text: In a neonatal model that has previously been described (Rice J. E., V. R. C. Brierley, Ann. Neurol. 9 (1981), 1126-35; Hagberg H. et al., Acta Paedeatr. Suppl 442 (1997), 85-88). Seven-day-old out bred Wistar Fue rats were anesthetised with enflurane (3,5% for induction and 1,5% for maintenance) in a mixture of nitrous oxide and oxygen on a snout mask. The left common carotid artery was cut between two prolene sutures (9-0). After anesthesia and surgery the animals were returned to there dams and allowed to recover for 60 minutes. They were thereafter exposed to 60 minutes of hypoxia in a humidified chamber at 36°C with 7.7±0.01% oxygen in nitrogen. The pups were returned to and kept with their dams until they were killed at different time points after the insult Animals were either perfused intracardially with saline and 5% buffered formaldehyde (Histofix; Histolab, Göteborg, Sweden) for preparation of paraffin sections or fresh tissue were immediately frozen in isopenthane on dry ice for preparation of protein homogenates. The animal ethics committee in Gothenburg approved the animal studies.
Animals received daily intracerebral injections of 5 µl solution containing either 5µg hexarelin or vehicle (NaCl 0.9 mg/ml). Injections were headed for the left ventricular at 1.5 mm lateral to the Sagittal suture, 5.7 mm rostral to lambda and 2.8 mm deep to the skull surface with a special made needle of 27 gauge. Injection velocity of 1.5 µl/min with a Hamilton syringe connected to a MCA pump.
Brain injury was evaluated and observer blinded between the study groups using a neuropathological scoring system where injury in cortex was graded from 0-4 with 0 being no observable injury and 4 being confluent infarction encompassing most of the hemisphere. The damage in the hippocampus, thalamus and striatum was assessed regarding both hypothrophy (shrinkage of cells) 0-3 and observable cell injury/infarction 0-3, resulting in a scoring for each region 0-6. The total score 0-22 was the sum score for all the four regions.

Cc1[nH]c2ccccc2c1C[C@@H](NC(=O)[C@@H](N)Cc1cnc[nH]1)C(=O)N[C@@H](C)C(=O)N[C@@H](Cc1c[nH]c2ccccc12)C(=O)N[C@H](Cc1ccccc1)C(=O)N[C@@H](CCCCN)C(N)=O [Hexarelin] (H-H[dTrp(2-Me)]AW[dF]K-NH2)
no differences: body temperature | body weight | mortality

Source: patent publication EP1529533A1, “Use of GH secretagogues in hypoxic-ischemic brain injury” (Sahltech I Göteborg AB, priority 2003, dated 2005)
